PubChem BioAssay (NCI)
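Grown in 96-well plates, cells were treated for 48 hours with each compound at five concentrations. Insufficient inhibition: endpoint recorded as highest concentration tested. GI50 is the concentration that inhibits growth by half. TGI denotes the concentration required for complete inhibition of growth.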

Columns and labels:
Experiment in all cases: NCI tumour cell line growth inhibition, 48 h
A498 renal = test system: A498 renal
COLO 205 colon = test system: COLO 205 colon
EKVX NSCLC = test system: EKVX NSCLC
HCT-116 colon = test system: HCT-116 colon
HT29 colon = test system: HT29 colon
LOX IMVI melanoma = test system: LOX IMVI melanoma
OVCAR-5 ovarian = test system: OVCAR-5 ovarian
SK-MEL-28 melanoma = test system: SK-MEL-28 melanoma
SK-MEL-5 melanoma = test system: SK-MEL-5 melanoma
UACC-62 melanoma = test system: UACC-62 melanoma

Row | Compound | GI50 (A498 renal) | TGI (A498 renal) | GI50 (COLO 205 colon) | TGI (COLO 205 colon) | GI50 (EKVX NSCLC) | TGI (EKVX NSCLC) | GI50 (HCT-116 colon) | TGI (HCT-116 colon) | GI50 (HT29 colon) | TGI (HT29 colon) | GI50 (LOX IMVI melanoma) | TGI (LOX IMVI melanoma) | GI50 (OVCAR-5 ovarian) | TGI (OVCAR-5 ovarian) | GI50 (SK-MEL-28 melanoma) | TGI (SK-MEL-28 melanoma) | GI50 (SK-MEL-5 melanoma) | TGI (SK-MEL-5 melanoma) | GI50 (UACC-62 melanoma) | TGI (UACC-62 melanoma)
1 | CCN(CC)c1nc(-c2ccc(Cl)cc2Cl)nc2ccccc12 | 0.702 µM | 7.63 µM | 19.5 µM | 48.8 µM | 0.333 µM | 5.05 µM | 14.8 µM | 29 µM | 37.6 µM | > 100 µM | 17.1 µM | 36 µM | 26.1 µM | > 68.1 µM | 31.8 µM | > 100 µM | 17.8 µM | 33.3 µM | 13.7 µM | 41.3 µM
2 | O=C(O)CSc1n[nH]c(-c2ccccc2)n1 | – | > 100 µM | – | > 100 µM | – | > 100 µM | – | – | – | > 100 µM | – | > 100 µM | – | > 100 µM | – | > 100 µM | – | > 100 µM | – | > 100 µM
3 | c1ccc(SC2CCSc3ccccc3C2Sc2ccccc2)cc1 (stereo not drawn) | – | > 100 µM | – | – | – | > 100 µM | – | > 100 µM | – | > 100 µM | – | > 100 µM | – | – | – | – | – | > 100 µM | – | –
4 | O=c1n(-c2ccccc2)c(=O)n2n1C1C=CC2C2C(C1)C2(Cl)Cl (stereo not drawn) | – | > 100 µM | – | > 100 µM | – | > 100 µM | – | > 100 µM | – | – | – | > 100 µM | – | > 100 µM | – | – | – | > 100 µM | – | > 100 µM
5 | CCOc1ccc2c(c1)[n+]([O-])c(-c1ccccc1Cl)c(N)[n+]2[O-] | – | > 100 µM | – | > 100 µM | – | > 100 µM | – | > 100 µM | – | > 100 µM | – | – | – | > 100 µM | – | > 100 µM | – | > 100 µM | – | –
6 | CC(=O)OC12c3ccccc3-c3ccccc3C1C1C(=O)N(C)C(=O)C12Cl (stereo not drawn) | – | > 10 µM | – | > 10 µM | – | > 10 µM | – | – | – | > 10 µM | – | > 10 µM | – | > 10 µM | – | > 10 µM | – | > 10 µM | – | –
7 | CCOC(=O)C(C)(C)Oc1ccc2c(C)c(-c3ccc(Cl)cc3)c(=O)oc2c1 | – | > 100 µM | – | > 100 µM | – | > 100 µM | – | > 100 µM | – | 62.7 µM | – | > 100 µM | – | – | – | > 100 µM | – | 35 µM | – | > 100 µM
8 | CS(=O)(=O)CCCn1c(=O)c(Oc2ccc(F)cc2F)cc2cnc(NC3CCOCC3)nc21 | > 25 µM | > 25 µM | > 25 µM | > 25 µM | – | – | > 25 µM | > 25 µM | > 25 µM | > 25 µM | > 25 µM | > 25 µM | > 25 µM | > 25 µM | > 25 µM | > 25 µM | > 25 µM | > 25 µM | > 25 µM | > 25 µM
9 | CCN(CC)CCOc1ccc(/C=C2\CC3C4CC=C5C[C@@H](O)CC[C@]5(C)C4CC[C@]3(C)C2=O)cc1OC (stereo partly drawn) | 2.84 µM | 9.84 µM | – | – | 9.56 µM | > 52.1 µM | 2.44 µM | 8.79 µM | 2.29 µM | > 100 µM | – | – | 5.53 µM | 20.3 µM | 9.61 µM | 73.4 µM | 6.58 µM | 22.6 µM | 1.71 µM | 3.3 µM
10 | Cc1ccc(NC(=O)C2C(=O)N(c3ccc(C)c(C)c3)C(=O)C2N=N)cc1C (stereo not drawn) | – | > 100 µM | – | > 100 µM | – | > 100 µM | – | > 100 µM | – | > 100 µM | – | – | – | > 100 µM | – | > 100 µM | – | > 100 µM | – | > 100 µM
11 | COc1cc(-c2nn(-c3cccc(NC(=O)Nc4ccc(Cl)c(Cl)c4)c3)cc2-c2ccncc2)ccc1Cl | 1.14 µM | 4.59 µM | 0.937 µM | 1.72 µM | – | – | 1.21 µM | > 50 µM | 1.24 µM | 6.46 µM | 0.953 µM | 2.62 µM | 2.13 µM | > 50 µM | 1.43 µM | 7.32 µM | 0.741 µM | 1.49 µM | 0.773 µM | 1.86 µM
12 | COC12C=C/C(=C(/C(=O)OCc3ccncc3)C(=O)CCCCCCCCC3(OC)C=C/C(=C(/C(=O)OCc4ccncc4)C(=O)CCCCCCCC1)O3)O2 | 0.78 µM | 1.48 µM | 0.78 µM | 2.18 µM | 1.21 µM | 5.1 µM | 0.111 µM | 0.239 µM | 0.721 µM | 4.79 µM | 0.107 µM | 0.264 µM | 0.87 µM | 4.6 µM | 0.29 µM | 1.79 µM | 0.247 µM | 0.867 µM | – | –
13 | CCc1cccc(C)c1NC(=O)C(=O)Cc1nc2ccccc2o1 | – | > 100 µM | – | > 100 µM | – | > 100 µM | – | > 100 µM | – | > 100 µM | – | > 100 µM | – | > 100 µM | – | > 100 µM | – | – | – | > 100 µM
14 | CCOC(=O)NC(=O)c1cn(CCOC(=O)NCCCCCCNC(=O)OCCn2cc(C(=O)NC(=O)OCC)c(=O)[nH]c2=O)c(=O)[nH]c1=O | – | > 100 µM | – | > 100 µM | – | > 100 µM | – | > 100 µM | – | > 100 µM | – | > 100 µM | – | – | – | > 100 µM | – | > 100 µM | – | > 100 µM
15 | CCOc1ccc(N2C(=O)/C(=C/c3ccc(N(CCC#N)CCC#N)cc3)N=C2c2cc([N+](=O)[O-])ccc2Cl)cc1 | – | > 100 µM | – | 44.1 µM | – | > 100 µM | – | 39.5 µM | – | – | – | 62.6 µM | – | > 100 µM | – | 41.8 µM | – | 34.6 µM | – | 83.3 µM
16 | CCCCCCNC(=O)c1nc(-c2ccccc2)oc1Cc1ccc(OP(=O)(O)O)cc1 | 12.5 µM | 25.1 µM | 17 µM | 31.2 µM | – | – | 17.1 µM | 32.6 µM | 19.5 µM | 37.8 µM | 16.4 µM | 30.2 µM | 14.6 µM | 28.5 µM | 15.9 µM | 30.1 µM | 16.8 µM | 30.7 µM | 14 µM | 27.9 µM
17 | CN(C)c1c([O-])c(=[N+](C)C)c1=O | – | > 100 µM | – | – | – | > 100 µM | – | > 100 µM | – | > 100 µM | – | > 100 µM | – | > 100 µM | – | > 100 µM | – | – | – | > 100 µM
18 | Cn1cc(C2=C(c3cn(C)c4cc(C(N)=O)ccc34)C(=O)NC2=O)c2ccccc21 | 0.47 µM | 2.06 µM | 0.914 µM | 6.08 µM | – | – | 1.08 µM | > 21.6 µM | 0.924 µM | > 13.5 µM | 1.76 µM | > 25 µM | 11.1 µM | > 25 µM | 2.66 µM | > 25 µM | 0.751 µM | 3.39 µM | 2.31 µM | > 16.8 µM
